How the values were obtained:
Format in all cases: cell-based
C. albicans [1] = assay: ROS formation by HPF fluorescence (flow cytometry); details: wildtype C. albicans, SDC, after 1.5 hours of treatment (CAS 0.5 μg/ml)
Procedure: (§1) The formation of ROS following AF treatment in yeast was measured using the dye 3′-(p-hydroxyphenyl) fluorescein (HPF), which is preferentially oxidized by intracellular hydroxyl radicals into a fluorescent product (Kohanski et al., 2007). Exponentially growing wildtype S. cerevisiae and C. albicans were treated in synthetic dextrose complete (SDC) medium with the minimum concentration of fungicide required to achieve at least a 90% reduction in colony forming units (CFU) after three hours of exposure. As a positive control, cells were also treated with H2O2, a potent inducer of hydroxyl radical formation (Perrone et al., 2008).
(§2) Overnight yeast cultures were diluted into the indicated media and grown to an OD600 of 0.2, at which point the AFs were added. Colony forming units (CFU) were measured by plating six serial dilutions onto YPD agar plates. Cells treated with MCZ were washed before serial dilution to stop growth inhibition associated with high concentrations of MCZ. CFU were counted after three days of incubation on agar plates. When indicated, thiourea (Fluka) was added 30 min prior to the addition of AFs. HPF (10 μM) (Invitrogen) and Mito Tracker (1 μM) (Invitrogen) dyes were added to PBS-washed cells at the indicated time points and incubated for 30 min prior to flow cytometry measurements, which were taken on the FACSCalibur (Becton-Dickinson). All experiments described in this section were conducted in 0.5 ml of SDC in 24-well plates incubated at 900 rpm and 37° C. for C. albicans and 30° C. and 300 rpm for S. cerevisiae. TUNEL assays were conducted as previously described (Ribeiro et al., 2006) and are described in detail in the TUNEL section of the Experimental Procedures.

S. cerevisiae = assay: ROS formation by HPF fluorescence (flow cytometry); details: wildtype S. cerevisiae, SDC, after 1.5 hours of treatment
Procedure: as §1, §2

[2] = test system: S. cerevisiae wildtype and deletion strains; details: S. cerevisiae, 3 hours of drug exposure
C. albicans [3] = assay: TUNEL assay of DNA strand breaks (flow cytometry); details: after 2 hours of treatment
Procedure: The terminal deoxynucleotidyl transferase dUTP nick-end labeling (TUNEL) assay was used to quantify the relative abundance of DSBs in C. albicans cells treated with AFs and H2O2. The TUNEL reagent fluorescently labels both double- and single-strand DNA breaks (Ribeiro et al., 2006).
DNA strand breaks were fluorescently labeled with TUNEL reagent from the “In Situ Cell Death Detection Kit”, Roche (Mannheim, Germany). After 2 hours of treatment 5 ml of OD 0.2 cells were fixed with 3.7% formaldehyde for 30 min at room temperature, and then washed with digestion buffer consisting of 10 mM Mes pH 6.5 and 1 M sorbitol. Cell were digested for 45 min at 30° C. with 2 U of Yeast Lytic Enzyme, MP Biomedicals, (Irvine, Calif.) in 50 μl of digestion buffer. Cells were then washed in PBS with 1 M sorbitol and resuspended in permeabilization solution consisting of 0.1% Triton X-100 and 0.1% sodium citrate and 1 M sorbitol for 10 min at room temperature. Cell were again washed in PBS with 1 M sorbitol and labeled for 60 min with 10 μl of TUNEL reaction mixture. Cells were then again washed in PBS with 1 M sorbitol and resuspended in sheath fluid. Mean relative florescence was measured by flow cytometry on the FACSCalibur (Becton-Dickinson).

C. albicans [4] = assay: Metabolomic profiling of intracellular metabolites (Metabolon)
Procedure: The results described herein link AF treatment to distinct changes in intracellular metabolic activity as part of an induced common killing mechanism. To further explore the role of metabolism in AF-induced cellular death, the effect of AF treatment on the intracellular metabolome of C. albicans was measured. To do so, a platform for metabolite detection and relative quantification from Metabolon Inc. (Durham, USA) (Evans et al., 2009) was utilized. Exponentially growing C. albicans cells were treated with AFs and samples collected for metabolomic analysis after 1.5 hours of treatment, a time point when it was expected that at least 90% of cells contributing to the metabolite pool would be irreversibly committed to the death pathway (FIGS. 7A-7D).
C. albicans cells were lysed and assayed by Metabolon Inc. (Durham, USA) as previously described (Shakoury-Elizeh et al., 2010). ATP and AMP were extracted as previously described (Walther et al., 2010) and analyzed by HPLC. This procedure is more fully described elsewhere herein.
C. albicans cells were incubated in 100 ml of SDC in 250 ml flasks at 37° C. and 300 rpm. Cells were exposed to AFs at an OD600 of 0.2, and cellular pellets from 100 ml of media were collected after 1.5 h of treatment. Cells were lysed and assayed by Metabolon Inc. (Durham, USA) as previously described (Evans et al., 2009; Shakoury-Elizeh et al., 2010).

With OO [H2O2] the “HPF fluorescence (formation of ROS)” value (C. albicans [1]) was “dramatic induction of HPF fluorescence”, the “HPF fluorescence (formation of ROS)” value (S. cerevisiae) was “dramatic induction of HPF fluorescence” and the “susceptibility of rad50 and rad52 knockouts vs wildtype” value [2] was “considerably more susceptible”. The “TUNEL relative fluorescence (DNA breaks)” value (C. albicans [3]) was “elevated relative fluorescence”.

In the case of CC[C@H](C)C[C@H](C)CCCCCCCCC(=O)N[C@H]1C[C@@H](O)[C@@H](NCCN)NC(=O)[C@@H]2[C@@H](O)CCN2C(=O)[C@H]([C@H](O)CCN)NC(=O)[C@H]([C@H](O)[C@@H](O)c2ccc(O)cc2)NC(=O)[C@@H]2C[C@@H](O)CN2C(=O)[C@H]([C@@H](C)O)NC1=O [caspofungin], the “HPF fluorescence (formation of ROS)” value (C. albicans [1]) is reported as “elevated ROS levels”, the “intracellular sugars (fructose, mannose, trehalose) abundance vs control” value (C. albicans [4]; 1.5 hours of treatment) is reported as “elevation of sugars” and the “fermentative waste products (2,3-butanediol and glycerol)” value (C. albicans [4]; 1.5 hours of treatment, vs untreated) is reported as “reduction in fermentative byproducts”. For the same compound, the “metabolic changes compared with those induced by AMB, MCZ and CIC” value (C. albicans [4]; CAS 0.5 μg/ml, 1.5 hours) was “similar”.
